# Measured values: US8765741B2, “5,6-dihydro-1H-pyridin-2-one compounds” (Anadys Pharmaceuticals, Inc., priority 2007, dated 2014)
# Target: NS5B polymerase (Hepatitis C virus genotype 1b, UniProt P26663)
# Experiment: biochemical
# Settings: not given
# Protocol: Compounds were tested for HCV polymerase inhibition. Assays were performed in a 96-well streptavidin-coated FlashPlate using 20 nM enzyme, 0.5 μCi of [α-^33P]GTP, 0.6 μM GTP, and 250 nM 5′biotinylated oligo (rG13)/poly rC in 20 mM Tris-HCl, pH 7.5, 5 mM MgCl2, 5 mM dithiothreitol, 0.1 g/L bovine serum albumin, and 100 U/mL RNAse inhibitor. The reaction was stopped by aspiration after 75 min at 28° C. and the plate was washed several times. After washing and drying the plate, incorporated radioactivity was counted using a Microbeta scintillation counter. IC50 values were calculated relative to the uninhibited control and inhibition data were fitted to a 4-parameter IC50 equation.
# Sequence of NS5B polymerase (P26663 2420-3010): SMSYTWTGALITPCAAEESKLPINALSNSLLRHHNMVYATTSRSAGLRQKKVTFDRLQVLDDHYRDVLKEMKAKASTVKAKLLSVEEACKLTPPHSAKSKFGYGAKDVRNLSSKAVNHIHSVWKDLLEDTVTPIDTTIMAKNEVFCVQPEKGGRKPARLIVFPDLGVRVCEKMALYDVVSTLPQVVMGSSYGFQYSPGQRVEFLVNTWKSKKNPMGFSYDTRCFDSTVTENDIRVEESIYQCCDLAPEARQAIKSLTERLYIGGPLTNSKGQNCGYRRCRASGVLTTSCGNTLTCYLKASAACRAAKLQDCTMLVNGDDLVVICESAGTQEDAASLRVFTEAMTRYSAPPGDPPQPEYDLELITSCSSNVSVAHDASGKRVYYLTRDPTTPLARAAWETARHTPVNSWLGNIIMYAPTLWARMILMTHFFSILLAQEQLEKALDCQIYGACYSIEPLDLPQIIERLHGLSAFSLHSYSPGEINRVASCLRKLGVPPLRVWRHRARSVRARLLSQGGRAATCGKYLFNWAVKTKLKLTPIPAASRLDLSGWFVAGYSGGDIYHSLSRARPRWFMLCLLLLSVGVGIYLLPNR
row,SMILES,IC50 [nM]
1,"CS(=O)(=O)Nc1ccc2c(c1)S(=O)(=O)N=C(C1=C(O)[C@@H]3[C@H]4CC[C@H](C4)[C@@H]3N(Cc3ccc(F)cc3)C1=O)N2 [Example 6, N-{3-[(1R,2S,7R,8S)-3-(4-Fluoro-benzyl)-6-hydroxy-4-oxo-3-aza-tricyclo[6.2.1.0^2,7]undec-5-en-5-yl]-1,1-dioxo-1,4-dihydro-1λ^6-benzo[1,2,4]thiadiazin-7-yl}-methanesulfonamide]",< 20

# Same assay, conditions: NS5B polymerase inhibition; 20 nM enzyme, 75 min at 28° C.
row,SMILES,IC50 [nM]
1,"CS(=O)(=O)Nc1ccc2c(c1)S(=O)(=O)N=C(C1=C(O)C3C4CCC(C4)C3N(Cc3ccc(F)cc3)C1=O)N2 (racemic) [Example 2, (rac-di-endo)-N-{3-[3-(4-Fluoro-benzyl)-6-hydroxy-4-oxo-3-aza-tricyclo[6.2.1.0^2,7]undec-5-en-5-yl]-1,1-dioxo-1,4-dihydro-1λ^6-benzo[1,2,4]thiadiazin-7-yl}-methanesulfonamide]",< 20

# Same assay, conditions: NS5B polymerase inhibition; 20 nM enzyme, 75 min at 28° C.; read-out: IC50
row,SMILES,IC50 [nM]
1,"O=C1C(C2=NS(=O)(=O)c3cc(C4=CCCS4(=O)=O)ccc3N2)=C(O)[C@@H]2[C@H]3CC[C@H](C3)[C@@H]2N1Cc1ccc(F)cc1 [Example 20, (1R,2S,7R,8S)-5-[7-(1,1-Dioxo-4,5-dihydro-1H-1λ^6-thiophen-2-yl)-1,1-dioxo-1,4-dihydro-1λ^6-benzo[1,2,4]thiadiazin-3-yl]-3-(4-fluoro-benzyl)-6-hydroxy-3-aza-tricyclo[6.2.1.0^2,7]undec-5-en-4-one]",100 to 1000
2,"CC(C)CCN1C(=O)C(C2=NS(=O)(=O)c3cc(NS(C)(=O)=O)ccc3N2)=C(O)C2C3CCC(O3)C21 (racemic) [Example 25, (rac-di-exo)-N-{3-[6-Hydroxy-3-(3-methyl-butyl)-4-oxo-11-oxa-3-aza-tricyclo[6.2.1.0^2,7]undec-5-en-5-yl]-1,1-dioxo-1,4-dihydro-1λ^6-benzo[1,2,4]thiadiazin-7-yl}-methanesulfonamide]",< 20
3,"CC(C)(C)CCN1C(=O)C(C2=NS(=O)(=O)c3cc(NS(=O)(=O)C4CC4)ccc3N2)=C(O)C2C3C=CC(C3)C21 (racemic) [Example 43, (rac-di-exo)-Cyclopropanesulfonic acid{3-[3-(3,3-dimethyl-butyl)-6-hydroxy-4-oxo-3-aza-tricyclo[6.2.1.0^2,7]undeca-5,9-dien-5-yl]-1,1-dioxo-1,4-dihydro-1λ^6-benzo[1,2,4]thiadiazin-7-yl}-amide]",20 to 100
4,"Cc1cc(CN2C(=O)C(C3=NS(=O)(=O)c4cc(NS(C)(=O)=O)ccc4N3)=C(O)C3C4CCC(O4)C32)ccc1F (racemic) [Example 12, (rac-di-exo)-N-{3-[3-(4-Fluoro-3-methyl-benzyl)-6-hydroxy-4-oxo-11-oxa-3-aza-tricyclo[6.2.1.0^2,7]undec-5-en-5-yl]-1,1-dioxo-1,4-dihydro-1λ^6-benzo[1,2,4]thiadiazin-7-yl}-methanesulfonamide]",< 20
5,"CN(c1ccc2c(c1)S(=O)(=O)N=C(C1=C(O)[C@@H]3[C@H]4CC[C@H](C4)[C@@H]3N(Cc3ccc(F)c(F)c3)C1=O)N2)S(C)(=O)=O [Example 17, N-{3-[(1R,2S,7R,8S)-3-(3,4-Difluoro-benzyl)-6-hydroxy-4-oxo-3-aza-tricyclo[6.2.1.0^2,7]undec-5-en-5-yl]-1,1-dioxo-1,4-dihydro-1λ^6-benzo[1,2,4]thiadiazin-7-yl}-N-methyl-methanesulfonamide]",20 to 100
6,"CC(C)CCN1C(=O)C(C2=NS(=O)(=O)c3cc(N4CCCC4)ccc3N2)=C(O)[C@@H]2[C@H]3CC[C@H](C3)[C@@H]21 [Example 53, (1R,2S,7R,8S)-5-(1,1-Dioxo-7-pyrrolidin-1-yl-1,4-dihydro-1λ^6-benzo[1,2,4]thiadiazin-3-yl)-6-hydroxy-3-(3-methyl-butyl)-3-aza-tricyclo[6.2.1.0^2,7]undec-5-en-4-one]",1000 to 100000
7,"CS(=O)(=O)Nc1ccc2c(c1)S(=O)(=O)N=C(C1=C(O)C3C4CCC(C4)C3N(Cc3ccc(F)cn3)C1=O)N2 (racemic) [Example 3, (rac-di-endo)-N-{3-[3-(5-Fluoro-pyridin-2-ylmethyl)-6-hydroxy-4-oxo-3-aza-tricyclo[6.2.1.0^2,7]undec-5-en-5-yl]-1,1-dioxo-1,4-dihydro-1λ^6-benzo[1,2,4]thiadiazin-7-yl}-methanesulfonamide]",100 to 1000
8,"CC(C)CCN1C(=O)C(C2=CS(=O)(=O)c3cc(NS(C)(=O)=O)ccc3N2)=C(O)C2C3C=CC(C3)C21 (racemic) [Example 38, (rac-di-exo)-N-{3-[6-Hydroxy-3-(3-methyl-butyl)-4-oxo-3-aza-tricyclo[6.2.1.0^2,7]undeca-5,9-dien-5-yl]-1,1-dioxo-1,4-dihydro-1λ^6-benzo[1,4]thiazin-7-yl}-methanesulfonamide]",20 to 100
9,"CN(c1ccc2c(c1)S(=O)(=O)N=C(C1=C(O)C3C4C=CC(C4)C3N(Cc3ccc(F)cc3)C1=O)N2)S(C)(=O)=O (racemic) [Example 39, (rac-di-exo)-N-{3-[3-(4-Fluoro-benzyl)-6-hydroxy-4-oxo-3-aza-tricyclo[6.2.1.0^2,7]undeca-5,9-dien-5-yl]-1,1-dioxo-1,4-dihydro-1λ^6-benzo[1,2,4]thiadiazin-7-yl}-N-methyl-methanesulfonamide]",1000 to 100000
10,"CS(=O)(=O)Nc1ccc2c(c1)S(=O)(=O)N=C(C1=C(O)[C@@H]3[C@H]4CC[C@H](C4)[C@@H]3N(Cc3ccc(F)c(F)c3)C1=O)N2 [Example 16, N-{3-[(1R,2S,7R,8S)-3-(3,4-Difluoro-benzyl)-6-hydroxy-4-oxo-3-aza-tricyclo[6.2.1.0^2,7]undec-5-en-5-yl]-1,1-dioxo-1,4-dihydro-1λ^6-benzo[1,2,4]thiadiazin-7-yl}-methanesulfonamide]",< 20

# Other lines, results leading:
row,IC50 [nM],SMILES
1,1000 to 100000,"CC(C)OC(=O)N(c1ccc2c(c1)S(=O)(=O)N=C(C1=C(O)C3C([C@@H]4CC[C@H]3C4)N(C3CCCC3)C1=O)N2)S(C)(=O)=O (stereo partly drawn) [Example 47, N-[3-(1R,2S,7R,8S)-(3-Cyclopentyl-6-hydroxy-4-oxo-3-aza-tricyclo[6.2.1.0^2,7]undec-5-en-5-yl)-1,1-dioxo-1,4-dihydro-1λ^6-benzo[1,2,4]thiadiazin-7-yl]-methanesulfonamide-N-isopropyl carbamate]"
2,< 20,"CS(=O)(=O)Nc1ccc2c(c1)S(=O)(=O)N=C(C1=C(O)C3C(C4CC(O)[C@H]3C4)N(Cc3ccc(F)cc3)C1=O)N2 (stereo in doubt) [Example 67, N-{3-[(1R,2S,7R,8S)-3-(4-Fluoro-benzyl)-6,9-dihydroxy-4-oxo-3-aza-tricyclo[6.2.1.0^2,7]undec-5-en-5-yl]-1,1-dioxo-1,4-dihydro-1λ^6-benzo[1,2,4]thiadiazin-7-yl}-methanesulfonamide]"
3,20 to 100,"CS(=O)(=O)Nc1ccc2c(c1)S(=O)(=O)N=C(C1=C(O)C3C4CCC(O4)C3N(C3CCCC3)C1=O)N2 (racemic) [Example 48, (rac-di-exo)-N-[3-(3-Cyclopentyl-6-hydroxy-4-oxo-11-oxa-3-aza-tricyclo[6.2.1.0^2,7]undec-5-en-5-yl)-1,1-dioxo-1,4-dihydro-1λ^6-benzo[1,2,4]thiadiazin-7-yl]-methanesulfonamide]"
4,< 20,"CS(=O)(=O)Nc1ccc2c(c1)S(=O)(=O)N=C(C1=C(O)C3C4CCC(O4)C3N(Cc3ccc(F)cc3)C1=O)N2 (racemic) [Example 8, (rac-di-exo)-N-{3-[3-(4-Fluoro-benzyl)-6-hydroxy-4-oxo-11-oxa-3-aza-tricyclo[6.2.1.0^2,7]undec-5-en-5-yl]-1,1-dioxo-1,4-dihydro-1λ^6-benzo[1,2,4]thiadiazin-7-yl}-methanesulfonamide]"
5,< 20,"CS(=O)(=O)Nc1ccc2c(c1)S(=O)(=O)N=C(C1=C(O)[C@H]3[C@H]([C@@H]4CC[C@H]3O4)N(Cc3ccc(F)cc3)C1=O)N2 [Example 14, N-{3-[(1S,2R,7S,8R)-3-(4-Fluoro-benzyl)-6-hydroxy-4-oxo-11-oxa-3-aza-tricyclo[6.2.1.0^2,7]undec-5-en-5-yl]-1,1-dioxo-1,4-dihydro-1λ^6-benzo[1,2,4]thiadiazin-7-yl}-methanesulfonamide]"
6,1000 to 100000,"CS(=O)(=O)Nc1ccc2c(c1)S(=O)(=O)N=C(C1=C(O)[C@@H]3[C@H]4CC[C@H](C4)[C@@H]3NC1=O)N2 [Example 27, (1R,2S,7R,8S)-N-[3-(6-Hydroxy-4-oxo-3-aza-tricyclo[6.2.1.0^2,7]undec-5-en-5-yl)-1,1-dioxo-1,4-dihydro-1λ^6-benzo[1,2,4]thiadiazin-7-yl]-methanesulfonamide]"
7,20 to 100,"Cc1ccc(CN2C(=O)C(C3=NS(=O)(=O)c4cc(NS(C)(=O)=O)ccc4N3)=C(O)[C@@H]3[C@H]4CC[C@H](C4)[C@@H]32)cc1F [Example 60, N-{3-[(1R,2S,7R,8S)-3-(3-Fluoro-4-methyl-benzyl)-6-hydroxy-4-oxo-3-aza-tricyclo[6.2.1.0^2,7]undec-5-en-5-yl]-1,1-dioxo-1,4-dihydro-1λ^6-benzo[1,2,4]thiadiazin-7-yl}-methanesulfonamide]"
8,1000 to 100000,O=C1C(C2=NS(=O)(=O)c3cc(Br)cnc3N2)=C(O)C2C([C@@H]3CC[C@H]2C3)N1Cc1ccc(F)cc1 (stereo partly shown) [Example 61]
9,1000 to 100000,"CC(C)CCN1C(=O)C(C2=NS(=O)(=O)c3cc(I)ccc3N2)=C(O)[C@@H]2[C@H]3CC[C@H](C3)[C@@H]21 [Example 34, (1R,2S,7R,8S)-6-Hydroxy-5-(7-iodo-1,1-dioxo-1,4-dihydro-1λ^6-benzo[1,2,4]thiadiazin-3-yl)-3-(3-methyl-butyl)-3-aza-tricyclo[6.2.1.0^2,7]undec-5-en-4-one]"
10,20 to 100,"CC(C)CCN1C(=O)C(C2=NS(=O)(=O)c3cc(NS(=O)(=O)C4CC4)ccc3N2)=C(O)C2C1[C@@H]1CC[C@H]2C1 (stereo partly drawn) [Example 40, Cyclopropanesulfonic acid{3-(1R,2S,7R,8S)-[6-hydroxy-3-(3-methyl-butyl)-4-oxo-3-aza-tricyclo[6.2.1.0^2,7]undec-5-en-5-yl]-1,1-dioxo-1,4-dihydro-1λ^6-benzo[1,2,4]thiadiazin-7-yl}-amide]"
